In patent US20260345838A1, “IDENTIFICATION AND/OR TREATMENT OF CANCER” (CLARITY PHARMACEUTICALS LIMITED, priority 2022, published 2026):
“And” between values parts separate entries of the source, which are not always exact repeats. Identical values can stand only once.

Tests used:
[1] = test system: prostate cancer; assay: PET imaging in post-radical prostatectomy prostate cancer patients with serial negative PSMA-PET; assay type: in vivo, human; settings: FIGS. 7 to 10
Procedure: (§1) A dose of 200 MBq ^64Cu-Sar-BBN was administered to a subject by slow intravenous bolus injection. The subject was imaged by PET/CT and the images analysed to determine the location, size and volume of any cancerous lesions present, which is indicated by the decay products of the ^64Cu radioisotope detected.
All patients received on average 200 MBq of [^64Cu]Cu-SAR-BBN intravenously with 60 minutes for uptake. Patient were scanned at 60-180 minutes post-injection with arms up, from vertex to mid thighs and at each bed position for two minutes. A low dose CT scan was performed with for attenuation correction and anatomical localisation. Comparison of the images obtained from each subject after administration of both ^18FDG and ^64Cu-Sar-BBN can be seen in FIGS. 7 to 10.

[2] = test system: metastatic ER+/PR+/HER2− breast cancer; assay: PET imaging in women with metastatic ER+/PR+/HER2− breast cancer; assay type: in vivo, human
Procedure: Example 5—Administration of ^64Cu-Sar-BBN for Radioimaging
as §1
Women with clinical progression of metastatic ER+/PR+/HER2− breast cancer requiring re-staging were administered ^18FDG and images of each patient acquired by PET. Imaging with ^64Cu-Sar-BBN PET (with 200 MBq ^64Cu-Sar-BBN administered by IV injection) was performed within 2 weeks of imaging by ^18FDG. Qualitative interpretation of the PET studies was performed by accredited nuclear medicine physicians. Quantitative analysis was performed using MIM Software, Cleveland. Comparison of the images obtained from each subject after administration of both ^18FDG and ^64Cu-Sar-BBN can be seen in FIGS. 1 to 6 (see Table 1).

[3] = test system: metastatic ER+/PR+/HER2− breast cancer; settings: compared to triple negative subtypes; cited from earlier work
[4] = 18FDG PET, per patient, listed as FDG

O=C(O)CCc1ccc(O)c(CN(CCN(CC(=O)O)Cc2cc(CCC(=O)NCCCCCC(=O)NCCCC[C@H](NC(=O)N[C@@H](CCC(=O)O)C(=O)O)C(=O)O)ccc2O)CC(=O)O)c1.[Ga+3] [^68Ga-PSMA-11]
lesion detection [1]: serial negative PSMA-PET

OC[C@H]1OC(O)[C@H]([18F])[C@@H](O)[C@@H]1O (stereo partly shown) [^18FDG]
FDG SUVmax [2, 4]: 7 (2×) and 20 and <3 and 8 and 11
FDG TTV (total tumor volume) [2, 4]: 91 and 168 and 0 and 8 and 2 and 504
lesion detection compared with the other imaging ([2]; breast cancer patients, FIGS. 1 to 6): did not reveal any tumors
number of lesions identified ([2]; patient of FIG. 4): less than 3
lesion detection [1]: failed to identify any recurrent lesions
sensitivity of 18FDG-PET for ER+/PR+ breast cancer [3]: lower sensitivity for ER+/PR+ breast cancer, when compared to triple negative
